pIC50: −log10 of the molar value.
Assays:
BRD4 BD1 = target: T1, BRD4 BD1 (Homo sapiens, UniProt O60885); assay: AlphaScreen binding assay, BRD4 Bromodomain 1
T1 construct: made in house
How it was run: (§1)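 An AlphaScreen competition format was used with His-BRD4 BD1 or BD2 and biotin-H4 K5/8/12/16-acetyl peptide, each at matched final levels of 50 nM (BD1) or 100 nM (BD2). Incubation in HEPES/NaCl buffer with 0.1% BSA and 0.01% Triton X-100 ran ≥1 h before IC50 determination.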

BRD4 BD2 = target: T2, BRD4 BD2 (Homo sapiens, UniProt O60885); assay: AlphaScreen binding assay, BRD4 Bromodomain 2
T2 construct: made in house
How it was run: as §1

MV4-11 cells = assay: Oncology cell growth assay (3-day proliferation, CellTiter-Glo); type: cell-based; details: Homo sapiens, MV4-11, 72 h, AML cell line MV4-11, 72 hours, compounds grouped by IC50 range, read-out: MV4-11 IC50 (inhibition of proliferation, gIC50)
Protocol: The impact of Example compounds on cancer cell proliferation was determined using the acute myelocytic leukemia (AML) cell line MV4-11 (ATCC) in a 3-day proliferation assay. MV4-11 cells were maintained in RPMI 1640 media supplemented with 10% FBS at 37° C. and an atmosphere of 5% CO2. For compound testing, compound dilutions series were prepared in DMSO via a 3-fold serial dilution from 2 mM to 0.001 mM in 384-well white flat bottom plates. The final compound concentrations in the wells were 10, 3.3, 1.1, 0.37, 0.12, 0.041, 0.013 and 0.0045 μM. MV4-11 cells were plated at a density of 3000 cells/well in final volume of 50 μl culture media and incubated for 72 hours. […] Luminescent signal from the CellTiter-Glo assay was read on an EnVision multilabel plate reader (PerkinElmer). Values for the concentration that inhibited cell growth by 50% (gIC50) between the DMSO control and background control (no cells) were determined using IDBS Activity Base software with a four parameter logistic curve fit by the equation y=A+((B−A)/(1+((C/x)^D))), wherein A denotes the bottom plateau of the curve, B denotes the top plateau of the curve, C denotes the x value at the middle of the curve, D denotes the slope factor, x denotes the original known x values, and y denotes the original known y values. Data was fitted using the Levenburg Marquardt algorithm.

Row | SMILES | pIC50 (BRD4 BD1) | pIC50 (BRD4 BD2) | pIC50 (MV4-11 cells)
1 | CC(=O)N1c2ccc(-c3ccc4c(c3)CCN4S(C)(=O)=O)cc2N(C(=O)c2ccco2)C[C@@H]1C [Example I-299] | 6.00 to 7.00 | 6.30 to 7.30 | 6.30 to 7.00
2 | COc1ccc(-c2ccc3c(c2)N(C(=O)OC(C)C)C[C@H](C)N3C(C)=O)cc1N1CCCS1(=O)=O [Example I-1170] | 6.00 to 7.00 | 6.30 to 7.30 | 6.30 to 7.00
3 | CCOC(=O)N1C[C@H](C)N(C(C)=O)c2ccc(-c3cn[nH]c3)cc21 [Example I-19, (S)-ethyl 4-acetyl-3-methyl-7-(1H-pyrazol-4-yl)-3,4-dihydroquinoxaline-1(2H)-carboxylate] | 5.00 to 6.00 | 6.30 to 7.30 | 6.30 to 7.00
4 | CC(=O)N1c2ccc(-c3ccc(S(C)(=O)=O)cc3)cc2N(c2nc3ccccc3o2)C[C@@H]1C [Example I-46, (S)-1-(4-(benzo[d]oxazol-2-yl)-2-methyl-6-(4-(methylsulfonyl)phenyl)-3,4-dihydroquinoxalin-1(2H)-yl)ethanone] | 6.00 to 7.00 | < 6.30 | 6.30 to 7.00
5 | CC(=O)N1c2ccc(-c3ccc(S(C)(=O)=O)cc3)cc2N(C(=O)Oc2ccc(C)cc2)C[C@@H]1C [Example I-232] | 6.00 to 7.00 | 6.30 to 7.30 | > 7.00
6 | CC(=O)N1c2ccc(-c3cnn(C(C)(C)CO)c3)cc2N(C(=O)OC(C)C)C[C@@H]1C [Example I-1275] | 6.00 to 7.00 | > 7.30 | 6.30 to 7.00
7 | CC(=O)N1c2ccc(-c3cnn(C4COC4)c3)cc2N(C(=O)OCC2CCC2)C[C@@H]1C [Example I-60, (S)-cyclobutylmethyl 4-acetyl-3-methyl-7-(1-(oxetan-3-yl)-1H-pyrazol-4-yl)-3,4-dihydroquinoxaline-1(2H)-carboxylate] | 6.00 to 7.00 | 6.30 to 7.30 | 6.30 to 7.00
8 | CC(=O)N1c2ccc(-c3ccc(S(=O)(=O)n4cccn4)cc3)cc2N(C(=O)OC2CCCCC2)C[C@@H]1C [Example I-1259] | 6.00 to 7.00 | 6.30 to 7.30 | 6.30 to 7.00
9 | CC(=O)N1c2ccc(-c3ccc(C4(O)COC4)cc3)cc2N(C(=O)c2ccco2)C[C@@H]1C [Example I-415] | 6.00 to 7.00 | > 7.30 | 6.30 to 7.00
10 | CC(C)OC(=O)N1C[C@H](C)N(C(=O)C2CC2)c2ccc(-c3ccc(CS(N)(=O)=O)cc3)cc21 [Example I-476] | 6.00 to 7.00 | < 6.30 | < 6.30
11 | CC(=O)N1c2ccc(-c3cnn(Cc4c[nH]cn4)c3)cc2N(C(=O)C2CC2)C[C@@H]1C [Example I-127, (S)-1-(6-(1-((1H-imidazol-4-yl)methyl)-1H-pyrazol-4-yl)-4-(cyclopropanecarbonyl)-2-methyl-3,4-dihydroquinoxalin-1(2H)-yl)ethanone] | 6.00 to 7.00 | > 7.30 | < 6.30
12 | CC(=O)N1c2ccc(-c3ccc(CS(N)(=O)=O)cc3)cc2N(C(=O)OC(C)C)C[C@@H]1C [Example I-475] | 6.00 to 7.00 | 6.30 to 7.30 | 6.30 to 7.00
13 | COC(=O)N1c2ccc(-c3ccc(N4CCS(=O)(=O)CC4)cc3)cc2N(C(=O)OC(C)C)C[C@@H]1C [Example I-483] | 6.00 to 7.00 | 6.30 to 7.30 | < 6.30
14 | CC(=O)N1c2ccc(-c3ccc(S(=O)(=O)N4CCC4)cc3)cc2N(C(=O)c2ccco2)C[C@@H]1C [Example I-289] | 6.00 to 7.00 | > 7.30 | 6.30 to 7.00
15 | CC(=O)N1c2ccc(-c3ccc(CS(N)(=O)=O)cc3)cc2N(C(=O)C2CC2)C[C@@H]1C [Example I-445] | 6.00 to 7.00 | 6.30 to 7.30 | 6.30 to 7.00
16 | CC(=O)N1c2ccc(-c3cnn(CC(=O)N(C)C)c3)cc2N(C(=O)OC(C)C)C[C@@H]1C [Example I-305] | 6.00 to 7.00 | 6.30 to 7.30 | 6.30 to 7.00
17 | CC(=O)N1c2ccc(-c3cnn(C4COC4)c3)cc2N(C(=O)OC(CF)CF)C[C@@H]1C [Example I-72, (S)-1,3-difluoropropan-2-yl 4-acetyl-3-methyl-7-(1-(oxetan-3-yl)-1H-pyrazol-4-yl)-3,4-dihydroquinoxaline-1(2H)-carboxylate] | 6.00 to 7.00 | > 7.30 | 6.30 to 7.00
18 | CC(=O)N1c2ccc(-c3nnc(N)s3)cc2N(C(=O)c2ccco2)C[C@@H]1C [Example I-430] | 5.00 to 6.00 | 6.30 to 7.30 | 6.30 to 7.00
19 | CCS(=O)(=O)Nc1cccc(-c2ccc3c(c2)N(C(=O)c2ccco2)C[C@H](C)N3C(C)=O)c1 [Example I-876] | 6.00 to 7.00 | > 7.30 | 6.30 to 7.00

Row | SMILES | pIC50 (BRD4 BD1) | pIC50 (BRD4 BD2) | pIC50 (MV4-11 cells)
20 | CC(=O)N1c2ccc(-c3cnn(CC4CCOCC4)c3)cc2N(C(=O)OC(C)C)C[C@@H]1C [Example I-608] | 6.00 to 7.00 | 6.30 to 7.30 | 6.30 to 7.00
21 | CCOC(=O)N1C[C@H](C)N(C(C)=O)c2ccc(-c3cnn(C4COC4)c3)cc21 [Example I-9, (S)-ethyl 4-acetyl-3-methyl-7-(1-(oxetan-3-yl)-1H-pyrazol-4-yl)-3,4-dihydro-quinoxaline-1(2H)-carboxylate] | 6.00 to 7.00 | 6.30 to 7.30 | 6.30 to 7.00
22 | CC(=O)N1c2ccc(-c3cnn(CC(=O)N4CCC4)c3)cc2N(C(=O)OC(C)C)C[C@@H]1C [Example I-667] | 6.00 to 7.00 | 6.30 to 7.30 | 6.30 to 7.00
23 | COC(=O)N1c2ccc(-c3cnn(C4CC4)c3)cc2N(C(=O)OC2CCC2)C[C@@H]1C [Example I-1005] | 6.00 to 7.00 | 6.30 to 7.30 | 6.30 to 7.00
24 | CCN(CC)S(=O)(=O)c1cc(-c2ccc3c(c2)N(C(=O)OC2CCCCC2)C[C@H](C)N3C(C)=O)ccc1OC [Example I-1257] | 6.00 to 7.00 | 6.30 to 7.30 | 6.30 to 7.00
25 | CC(=O)N1c2ccc(-c3ccc(S(N)(=O)=O)c(F)c3)cc2N(C(=O)C2CC2)C[C@@H]1C [Example I-1297] | 5.00 to 6.00 | 6.30 to 7.30 | < 6.30
26 | CC(=O)N1c2ccc(-c3ccc(S(=O)(=O)NCCO)cc3)cc2N(C(=O)C2CCC2)C[C@@H]1C [Example I-1036] | 5.00 to 6.00 | 6.30 to 7.30 | 6.30 to 7.00
27 | COc1ccc(F)cc1OC(=O)N1C[C@H](C)N(C(C)=O)c2ccc(-c3cnn(C4CC4)c3)cc21 [Example I-1201] | 6.00 to 7.00 | > 7.30 | 6.30 to 7.00
28 | CC(=O)N1c2ccc(-c3ccc4c(c3)OCCO4)cc2N(C(=O)c2ccco2)C[C@@H]1C [Example I-825] | 6.00 to 7.00 | > 7.30 | < 6.30
29 | CC(=O)N1c2ccc(-c3cnn(C4CNC4)c3)cc2N(C(=O)C2CC2)C[C@@H]1C [Example I-360] | > 7.00 | > 7.30 | 6.30 to 7.00
30 | CC(=O)N1c2ccc(-c3cnn(CCO)c3)cc2N(C(=O)Oc2cccnc2)C[C@@H]1C [Example I-1281] | 6.00 to 7.00 | 6.30 to 7.30 | 6.30 to 7.00
31 | CC(=O)N1c2ccc(-c3ccc(C(=O)N4C[C@@H]5C[C@H]4CN5)cc3)cc2N(C(=O)OC(C)C)C[C@@H]1C [Example I-593] | 6.00 to 7.00 | 6.30 to 7.30 | 6.30 to 7.00
32 | CC(=O)N1c2ccc(-c3cnn(Cc4cc(C)no4)c3)cc2N(C(=O)C2CC2)C[C@@H]1C [Example I-149, (S)-1-(4-(cyclopropanecarbonyl)-2-methyl-6-(1-((3-methylisoxazol-5-yl)methyl)-1H-pyrazol-4-yl)-3,4-dihydroquinoxalin-1 (2H)-yl)ethanone] | 6.00 to 7.00 | 6.30 to 7.30 | 6.30 to 7.00
33 | CC(=O)N1c2ccc(-c3cnn(C4CCOCC4)c3)cc2N(C(=O)C2CC2)C[C@@H]1C [Example I-1302] | 6.00 to 7.00 | > 7.30 | 6.30 to 7.00
34 | CCCS(=O)(=O)c1ccc(-c2ccc3c(c2)N(C(=O)C2CCC2)C[C@H](C)N3C(C)=O)cc1 [Example I-1071] | 5.00 to 6.00 | 6.30 to 7.30 | 6.30 to 7.00
35 | CC(=O)N1c2cc(F)c(-c3ccc(S(C)(=O)=O)cc3)cc2N(C(=O)OC(C)C)C[C@@H]1C [Example I-196, Isopropyl (S)-4-acetyl-6-fluoro-3-methyl-7-(4-(methylsulfonyl)phenyl)-3,4-dihydroquinoxaline-1(2H)-carboxylate] | 5.00 to 6.00 | < 6.30 | < 6.30
36 | CC(=O)N1c2ccc(-c3cnn(C4COC4)c3)cc2N(C(=O)OCCC(F)(F)F)C[C@@H]1C [Example I-69, (S)-3,3,3-trifluoropropyl 4-acetyl-3-methyl-7-(1-(oxetan-3-yl)-1H-pyrazol-4-yl)-3,4-dihydroquinoxaline-1(2H)-carboxylate] | > 7.00 | > 7.30 | 6.30 to 7.00
37 | COC(=O)N1c2ccc(-c3ccc(C(=O)N(C)CC(=O)N(C)C)cc3)cc2N(C(=O)OC(C)C)C[C@@H]1C [Example I-561] | > 7.00 | 6.30 to 7.30 | 6.30 to 7.00
